Reference: patent US8497278B2, “Imidazo[1,2-a]pyridine compounds” (priority 2008, dated 2013)
Marks after values point to notes of the source that are not given here.

What was measured:
rhesus monkeys = assay: Rhesus monkey conflict test; format: in vivo; settings: cumulative dosing
From the text: Conflict protocol: The conflict procedure is a well established operant conditioning approach to evaluate anxiolytic-like effects of test compounds. In this procedure, positively-reinforced behavior is suppressed by response-contingent administration of a noxious stimulus (i.e., mild electric shock). Compounds with anxiolytic effects in humans (e.g., benzodiazepines) characteristically increase rates of responding that are suppressed by shock and are referred to as anti-conflict or anxiolytic-like effects. […] In addition to anxiolytic-like effects, conflict procedures also provide an assessment of the ability of the animal to perform operant lever pressing. This is typically assessed by including lever pressing in the absence of the noxious stimulus. Most anxiolytic compounds will decrease rates of responding in the absence of shock at doses higher than those that induce anxiolytic-like effects. The effects contributing to anxiolytic-induced decreases in non-suppressed responding are not well understood, but likely consist of a combination of motor co-ordination deficits and sedative effects.
Adult rhesus monkeys were used in these studies (n=1-4). Weights of the monkeys ranged from 6.2 to 10.5 kg. The animals had been previously trained using the conflict procedure. Animals were maintained at 85-95% of their free-feeding weights by manipulation of food intake. Monkeys were individually housed with water available ad libitum, and maintained on a 12 hour lights-on/12 hour lights-off cycle (lights on at 0600 a.m.). Monkeys received Harlan Teklad diet (15% Primate Diet) as well as supplemental feeding (fruits, vegetables, and commercially available primate treats) daily. They were also given toys and video enrichment when not in an experimental session. Each animal was prepared prior to the study with a chronic indwelling venous catheter for drug delivery. A polyvinyl chloride catheter was implanted in a jugular, femoral or brachial vein under isoflurane anesthesia and aseptic conditions. The proximal end of the catheter terminated above the right atrium, and the distal end was passed subcutaneously to exit in the midscapular region. Experimental sessions began 5-7 days following surgery. Catheters had been implanted approximately 3 months to 1 year prior to the initiation of the study. During experimental sessions, monkeys were seated in primate chairs that were placed in ventilated sound-attenuating chambers. A single response lever was mounted on the wall of the chamber in front of the monkey. Each press of a lever produced an audible click and was recorded as a response via electromechanical equipment, a computer interface, and PC with specialized software. Food pellets could be delivered into a tray located next to the lever. Mild electric shock could be delivered to the bottom of the feet via brass electrodes that were fitted to shoes. Red and green lights mounted above the levers could be illuminated to serve as visual stimuli.
Monkeys were trained under a multiple schedule of food reinforcement adapted from Spealman (1979). A daily session consisted of 4 cycles, each preceded by a 10-min time out period in which all lights in the chamber were off and responding had no programmed consequences. Each cycle consisted of two components, component 1 and 2. Component 1 was signaled by red stimulus lights and consisted of an 18-response schedule (FR18) of food pellet delivery (i.e., the animal receives a food pellet following 18 responses). Component 2, signaled by green stimulus lights, followed immediately and consisted of the FR18 schedule of food delivery combined with a FR20 schedule of foot shock delivery (1.5-3.0 mA, adjusted for each monkey based on individual performance, 0.25 sec duration). Delivery of a food pellet (FR18 schedule) was followed by a 10 sec time out in which responses had no programmed consequences. […]

[1] = biological target: T1, α3 subtype containing GABA-A receptors (Homo sapiens, UniProt P18507+P34903); assay: Two-electrode voltage clamp electrophysiology in Xenopus oocytes, potentiation of GABA EC20 response, α3; format: cell-based; settings: 100 nM compound, read-out: Percentage of potentiation alpha3
T1 construct: expressed in transfected cells; host or cells: Xenopus laevis oocytes, cRNA injected
T1 sequence (P34903 29-492): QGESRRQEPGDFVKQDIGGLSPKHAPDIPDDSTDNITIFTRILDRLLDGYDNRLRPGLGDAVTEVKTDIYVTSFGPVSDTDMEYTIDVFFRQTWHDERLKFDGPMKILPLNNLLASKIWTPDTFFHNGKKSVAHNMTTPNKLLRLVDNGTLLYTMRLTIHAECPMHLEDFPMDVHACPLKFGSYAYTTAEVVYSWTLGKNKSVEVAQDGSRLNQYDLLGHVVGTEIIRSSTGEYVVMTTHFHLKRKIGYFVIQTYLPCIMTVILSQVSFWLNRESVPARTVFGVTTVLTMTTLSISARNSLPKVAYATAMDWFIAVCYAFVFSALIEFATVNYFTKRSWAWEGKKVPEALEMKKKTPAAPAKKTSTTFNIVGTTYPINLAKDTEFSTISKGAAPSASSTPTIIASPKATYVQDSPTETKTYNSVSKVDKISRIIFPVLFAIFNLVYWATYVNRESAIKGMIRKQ
T1 sequence (P28472 26-473 partner): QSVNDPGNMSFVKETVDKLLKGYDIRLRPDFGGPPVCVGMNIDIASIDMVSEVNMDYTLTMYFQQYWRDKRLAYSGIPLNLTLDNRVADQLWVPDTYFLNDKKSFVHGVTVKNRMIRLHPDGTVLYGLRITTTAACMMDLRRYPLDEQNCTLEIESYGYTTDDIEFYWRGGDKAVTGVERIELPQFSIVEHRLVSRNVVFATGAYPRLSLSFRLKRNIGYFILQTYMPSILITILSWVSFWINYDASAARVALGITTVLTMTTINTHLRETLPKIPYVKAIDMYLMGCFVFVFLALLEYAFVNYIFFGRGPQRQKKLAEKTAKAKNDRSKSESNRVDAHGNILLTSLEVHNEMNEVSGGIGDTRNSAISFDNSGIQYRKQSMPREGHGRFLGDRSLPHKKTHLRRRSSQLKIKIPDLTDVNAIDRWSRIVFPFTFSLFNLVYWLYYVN
T1 sequence (P18507 40-475): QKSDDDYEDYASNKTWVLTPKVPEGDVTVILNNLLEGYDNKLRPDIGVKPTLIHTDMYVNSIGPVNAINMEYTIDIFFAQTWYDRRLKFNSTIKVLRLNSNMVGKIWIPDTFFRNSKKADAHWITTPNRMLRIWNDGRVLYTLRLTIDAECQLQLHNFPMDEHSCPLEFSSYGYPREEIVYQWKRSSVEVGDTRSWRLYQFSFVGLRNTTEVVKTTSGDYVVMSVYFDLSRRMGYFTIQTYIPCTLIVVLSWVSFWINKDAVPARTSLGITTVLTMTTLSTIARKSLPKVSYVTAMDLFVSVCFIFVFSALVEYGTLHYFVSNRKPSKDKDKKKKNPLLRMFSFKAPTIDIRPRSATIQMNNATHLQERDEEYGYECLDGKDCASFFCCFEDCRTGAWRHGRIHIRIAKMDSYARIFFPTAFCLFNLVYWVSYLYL
In short: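 Compounds are tested at 100 nM, one per oocyte, against an EC20 GABA (60 μM) response in human α1-, α2-, α3- or α5-β3-γ2L receptors clamped at −80 mV. Oocytes showing rapid desensitization or weak chlordiazepoxide (1 μM) potentiation are excluded.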

[2] = biological target: T2, α5 subtype containing GABA-A receptors (Homo sapiens, UniProt P18507+P31644); assay: Two-electrode voltage clamp electrophysiology in Xenopus oocytes, potentiation of GABA EC20 response, α5; format: cell-based; settings: 100 nM compound, read-out: Percentage of potentiation alpha5
T2 construct: expressed in transfected cells; host or cells: Xenopus laevis oocytes, cRNA injected
T2 sequence (P31644 32-462): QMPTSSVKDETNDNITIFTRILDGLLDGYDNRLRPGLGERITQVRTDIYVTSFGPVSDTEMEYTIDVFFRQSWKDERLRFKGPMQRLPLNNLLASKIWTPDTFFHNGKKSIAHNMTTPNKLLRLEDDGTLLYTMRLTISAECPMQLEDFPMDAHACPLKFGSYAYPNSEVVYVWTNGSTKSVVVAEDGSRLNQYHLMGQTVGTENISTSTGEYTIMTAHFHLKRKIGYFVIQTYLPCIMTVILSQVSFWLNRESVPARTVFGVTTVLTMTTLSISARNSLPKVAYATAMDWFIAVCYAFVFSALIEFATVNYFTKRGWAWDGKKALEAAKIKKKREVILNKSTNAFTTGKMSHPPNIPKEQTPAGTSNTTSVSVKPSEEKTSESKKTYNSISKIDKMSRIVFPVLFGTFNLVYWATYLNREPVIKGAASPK
T2 sequence (P28472 26-473 partner): as the sequence (P28472 26-473 partner) above
T2 sequence (P18507 40-475): as the sequence (P18507 40-475) above
Protocol: Electrophysiology protocol: Oocytes were prepared from adult female Xenopus laevis frogs. cRNA encoding human α1, α2, α3, α5, β3 and γ2L GABAA receptor subunits was injected into the cytoplasm of stage 5 or 6 oocytes using the Robocyte Robot (Multi Channel Systems, Reutlingen, Germany). Two-electrode voltage clamp recordings were made in 96-well plates using the Robocyte Robot. Oocytes were impaled using recording heads with two glass electrodes containing 1.5 M potassium acetate and 0.5 M KCl and held at a membrane potential of −80 mV. Oocytes were continually perfused with a ND96 solution (96 mM NaCl, 2 mM KCl, 0.1 mM CaCl2, and 5 mM HEPES, pH 7.5) using a Gilson 222 XL Liquid Handler and Gilson Minipuls 3 Peristaltic Pump (Gilson Medical Electronics, Middleton, Wis., USA). The protocol consisted of three 20-s applications of GABA that gave a 20% of the maximum response (EC20: 60 μM) to allow for headroom to determine a baseline GABA response. To assess the potentiation, oocytes were first exposed to a single 1 μM chlordiazepoxide (CDP) as a potentiation standard. Oocytes with insufficient expression levels (currents below threshold) or insufficient γ2L subunit incorporation (judged by rapid desensitization upon GABA application, or by insufficient potentiation by CDP) were not included in analysis. Following this control application, a given oocyte was exposed to test compounds at 100 nM concentrations. Only one concentration of one compound was tested per oocyte. […] One skilled in the art will recognize that subtypes contribute to the effects of GABA-A modulators. Such that compounds favoring different subtypes can have different therapeutic effects. The magnitude of modulation, for example, partial modulators can influence the effects in vivo. “++” indicates a greater modulation that “+” so that at any given subtype “++” inducates a greater amount of modulation for that subtype. In some embodiments, modulation favoring alpha 1 relative to alpha2 and/or alpha 3 can have sedative hypnotic effects. In other embodiments, compounds with reduced selectivity of alpha 1 can express anxiolytic effects with less sedation. Compounds with selectivity for alpha 5 can have memory/cognition enhancing effects.

| SMILES | Non-Suppressed Response Rates Mean ± S.E.M. (rhesus monkeys; 0.1 mg/kg IV) | Suppressed Response Rates Mean ± S.E.M. (rhesus monkeys; 0.1 mg/kg IV) | Non-Suppressed Response Rates Mean ± S.E.M. (rhesus monkeys; 0.3 mg/kg IV) | Suppressed Response Rates Mean ± S.E.M. (rhesus monkeys; 0.3 mg/kg IV) | Non-Suppressed Response Rates Mean ± S.E.M. (rhesus monkeys; 1 mg/kg IV) | Suppressed Response Rates Mean ± S.E.M. (rhesus monkeys; 1 mg/kg IV) | Non-Suppressed Response Rates Mean ± S.E.M. (rhesus monkeys; 3 mg/kg IV) | Suppressed Response Rates Mean ± S.E.M. (rhesus monkeys; 3 mg/kg IV) | Non-Suppressed Response Rates Mean ± S.E.M. (rhesus monkeys; 1.8 mg/kg IV) | Suppressed Response Rates Mean ± S.E.M. (rhesus monkeys; 1.8 mg/kg IV) | Non-Suppressed Response Rates Mean ± S.E.M. (rhesus monkeys; 5.6 mg/kg IV) | Suppressed Response Rates Mean ± S.E.M. (rhesus monkeys; 5.6 mg/kg IV) | activation at 0.1 µM [1] | activation at 0.1 µM [2] |
| --- | --- | --- | --- | --- | --- | --- | --- | --- | --- | --- | --- | --- | --- | --- |
| Cc1ccn(Cc2c(-c3ccc(Cl)cc3)nc3ccccn23)c(=O)n1 [Compound 105, 1-((2-(4-chlorophenyl)imidazo[1,2-a]pyridin-3-yl)methyl)-4-methylpyrimidin-2(1H)-one] | 2.68 ± 0.37 Responses/Second | 0.02 ± 0.01 Responses/Second | 2.68 ± 0.39 Responses/Second | 0.47 ± 0.44 Responses/Second | 2.78 ± 0.36 Responses/Second | 0.79 ± 0.45 Responses/Second | 1.02 ± 0.57 Responses/Second | 0.46 ± 0.32 Responses/Second |  |  |  |  |  |  |
| Cn1ncnc1Cc1c(-c2ccc(F)cc2)nc2ccc(F)cn12 [Compound 200, 6-fluoro-2-(4-fluorophenyl)-3-((1-methyl-1H-1,2,4-triazol-5-yl)methyl)imidazo[1,2-a]pyridine] |  |  | 3.2 Responses/Second | 0.02 Responses/Second | 2.9 Responses/Second | 0.02 Responses/Second | 3.1 Responses/Second | 1.2* Responses/Second | 2.4 Responses/Second | 1.4* Responses/Second | 3.3 Responses/Second | 1.9* Responses/Second |  |  |
| Clc1ccc(-c2nc3cccnn3c2Cn2cncn2)cc1 [Compound 32, 3-((1H-1,2,4-triazol-1-yl)methyl)-2-(4-chlorophenyl)imidazo[1,2-b]pyridazine] | 2.50 ± 0.29 Responses/Second | 0.03 ± 0.01 Responses/Second | 2.58 ± 0.44 Responses/Second | 0.24 ± 0.17 Responses/Second | 1.82 ± 0.67 Responses/Second | 1.1 ± 0.67 Responses/Second | 1.77 ± 0.64 Responses/Second | 1.19 ± 0.36 Responses/Second |  |  |  |  |  |  |
| NC(=O)c1ncn(Cc2c(-c3ccc(Cl)cc3)nc3ccccn23)n1 [Compound 72, 1-((2-(4-chlorophenyl)imidazo[1,2-a]pyridin-3-yl)methyl)-1H-1,2,4-triazole-3-carboxamide] |  |  |  |  |  |  |  |  |  |  |  |  | 10 to 50% | -10 to 10% |
